One data set concerns Lipoxygenase 5-LO. Nature of the data set: 5-lipoxygenase enzyme assay (5-LO). The note with it: 100 μg/ml. In kind it is biochemical, human. Here is the method:
For the 5-LO test a crude 5-lipoxygenase enzyme preparation from rat basophilic leukemia cells (RBL-1) is used. The test compound is pre-incubated with the enzyme for 5 minutes in Tris buffer pH 7.2 at room temperature. The reaction is initiated by addition of 15 μM arachidonic acid as substrate and run for an additional 8 minutes after which the reaction is terminated by addition of 70 mM citric acid and levels of 5-HETE are determined by radioimmune assay. […] NDGA (nordihydroguaretic acid) is used as standard reference agent.

Another data set has as its system IL-5. Kind of data set: Mediator Release, IL-5 (ConA-stimulated PBMNL cells). It counts as cell-based, human. Here is the method:
As regards the human IL-5 mediator release text, the test compound is incubated with Concanavalin A (ConA) (10 μg/ml)-stimulated human peripheral blood mononuclear leukocyte (PBMNL) cells in growth medium RPMI-1640 (pH 7.4) overnight at 37° C. in an incubator. The IL-5 cytokine production levels in the conditioned medium are quantified using a sandwich ELISA kit. […] These same concentrations are concurrently applied to a separate group of treated cells and evaluated for possible compound-induced cytotoxicity only if significant inhibition of release is observed. Dexamethasone is used as standard reference agent.

Data set [1] deals with Human T lymphocytic Jurkat cells. Kind of data set: Cytotoxicity, Transcription Response NF-κB. In kind it is cell-based. As for the experimental part: Human T lymphocytic Jurkat cells, transfected with a response element-lacZ reporter in which transcription of the β-galactosidase gene is directed by the binding site for the NF-κB transcription factor, are used. Test compound and/or vehicle are incubated with the cells (1.5×10^6/ml) in the presence of 0.5 μM A23187 and 50 ng/ml PMA (phorbol 12-myristate 13-acetate) in RPMI-1640 pH 7.4 at 37° C. for 4 hours. Test compound-induced β-galactosidase activity is determined by the conversion of FDG (fluorescein di-β-D-galactopyranoside) to fluorescein. Fluorescence intensity is read on SpectroFluor Plus plate reader. […] […] These same concentrations are concurrently applied to a separate group of treated cells and evaluated for possible compound-induced cytotoxicity only if significant stimulation or inhibition is observed (Cat. #361100).

In general, EC50 refers to the concentration that produces a half-maximal response. Read a high EC50 as a less potent agent. By IC50 is commonly meant the concentration that gives 50% inhibition. As for `Cc1coc2c1C[C@H]1[C@H](C)C=CC(=O)[C@]1(C)C2` (relative stereo) [compound 1, 4,4a,5,9-tetrahydro-3,5,8a-trimethylnaptho[2,3-b]furan-8-one], the “Inhibition (%) Lipoxygenase 5-LO” value in the data set on Lipoxygenase 5-LO stood at 99%. Moreover, the “ANT. Mediator Release, IL-5” value was 17% in the data set on IL-5 (10 nM); 18% with IL-5 (0.1 μM); 25% with IL-5 (1 μM); 36% in the data set with IL-5 (10 μM); 93% with IL-5 (100 μM); 93% in the data set on IL-5 (100 μg/ml (Table 13)). In the data set on IL-5 (Homo sapiens), this compound registered an EC50 of 16.1 µM. Besides, the 50% inhibitory concentration (IC50) in the data set on IL-5 (Homo sapiens, as worded, read-out: IC50 mediator release Interleukin-5 (IL-5) inhibition assay) amounted to 16.1 µM. In addition, the “% RESPONSE Ant, Cytotoxicity, Transcription Response NF-κB” value is 6% in data set [1] (0.1 μM); 2% in data set [1] (1 μM); 2% in data set [1] (10 μM); 1% in data set [1] (10 μM, fifth (last) step of the series); −3% in data set [1] (100 μM); “no apparent cytotoxicity” in data set [1] (100 μM, listed as compound of formula 1).

(Values after US8158165B2, “Preventative treatment and remission of allergic diseases” (CSIR, priority 2006, dated 2012).)
